# Reference: patent US9439432B2, “Phenylisoxazoline-based compound having herbicidal activity and use thereof” (MOGHU RESEARCH CENTER LTD, priority 2011, dated 2016)
# How the values were obtained:
# Format in all cases: in vivo
# [1] = test system: Corn; test: Pre-emergence treatment, phytotoxicity to corn; settings: 500 g/ha, 4 weeks after spraying, scale 0 to 10 (0: no effects, 10: complete death)
# Outline: (§1)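 Pre-emergence spray, 1 d post-sowing/irrigation; 1:1 sandy loam:bed soil; 300 L/ha; acetone + equal vol. 0.2% Tween 20; 62.5–500 g/ha. Greenhouse 25–30 °C day / 15–25 °C night. Visual 0–10 rating at 4 wk.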
# [2] = test system: Soybean; test: Pre-emergence treatment, phytotoxicity to soybean; settings: 500 g/ha, 4 weeks after spraying, scale 0 to 10 (0: no effects, 10: complete death)
# Outline: as §1
# [3] = test system: Cotton; test: Pre-emergence treatment, phytotoxicity to cotton; settings: 500 g/ha, 4 weeks after spraying, scale 0 to 10 (0: no effects, 10: complete death)
# Outline: as §1
# [4] = test system: Wheat; test: Pre-emergence treatment, phytotoxicity to wheat; settings: 500 g/ha, 4 weeks after spraying, scale 0 to 10 (0: no effects, 10: complete death)
# Outline: as §1
# [5] = test system: Rice; test: Pre-emergence treatment, phytotoxicity to rice; settings: 500 g/ha, 4 weeks after spraying, scale 0 to 10 (0: no effects, 10: complete death)
# Outline: as §1
# [6] = test system: Echinochloa crusgalli; test: Pre-emergence treatment, herbicidal efficacy on barnyardgrass; settings: 4 weeks after spraying
# Outline: as §1
# [7] = test system: Digitaria sanguinalis; test: Pre-emergence treatment, herbicidal efficacy on large crabgrass; settings: 4 weeks after spraying, scale 0 to 10
# Outline: as §1
# [8] = test system: Poa annua; test: Pre-emergence treatment, herbicidal efficacy on annual bluegrass; settings: 4 weeks after spraying, scale 0 to 10
# Outline: as §1
# [9] = test system: Alopecurus myosuroides; test: Pre-emergence treatment, herbicidal efficacy on blackgrass; settings: 4 weeks after spraying, scale 0 to 10
# Outline: as §1
# [10] = test system: Corn; test: Post-emergence treatment, phytotoxicity to corn; settings: post-emergence (about 3 leaf stage), 1,000 g/ha, 4 weeks after spraying, scale 0 to 10 (0: no effects, 10: complete death)
# Outline: (§2)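 Post-emergence spray at ~3-leaf stage; rates 1,000/500/250/125 g/ha, spray volume 300 L/ha; formulation acetone + equal vol. 0.2% (v/v) Tween 20. Greenhouse 25–30 °C day/15–25 °C night. Visual 0–10 score (10 = complete death) at 4 weeks.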
# [11] = test system: Soybean; test: Post-emergence treatment, phytotoxicity to soybean; settings: post-emergence (about 3 leaf stage), 1,000 g/ha, 4 weeks after spraying, scale 0 to 10 (0: no effects, 10: complete death)
# Outline: as §2
# [12] = test system: Cotton; test: Post-emergence treatment, phytotoxicity to cotton; settings: post-emergence (about 3 leaf stage), 1,000 g/ha, 4 weeks after spraying, scale 0 to 10 (0: no effects, 10: complete death)
# Outline: as §2
# [13] = test system: Wheat; test: Post-emergence treatment, phytotoxicity to wheat; settings: post-emergence (about 3 leaf stage), 1,000 g/ha, 4 weeks after spraying, scale 0 to 10 (0: no effects, 10: complete death)
# Outline: as §2
# [14] = test system: Rice; test: Post-emergence treatment, phytotoxicity to rice; settings: post-emergence (about 3 leaf stage), 1,000 g/ha, 4 weeks after spraying, scale 0 to 10 (0: no effects, 10: complete death)
# Outline: as §2
# [15] = test system: Echinochloa crusgalli; test: Post-emergence treatment, herbicidal efficacy on barnyardgrass; settings: 4 weeks after spraying, scale 0 to 10
# Outline: as §2
# [16] = test system: Digitaria sanguinalis; test: Post-emergence treatment, herbicidal efficacy on large crabgrass; settings: 4 weeks after spraying, scale 0 to 10
# Outline: as §2
# [17] = test system: Poa annua; test: Post-emergence treatment, herbicidal efficacy on annual bluegrass; settings: 4 weeks after spraying, scale 0 to 10
# Outline: as §2
# [18] = test system: Alopecurus myosuroides; test: Post-emergence treatment, herbicidal efficacy on blackgrass; settings: 4 weeks after spraying, scale 0 to 10
# Outline: as §2
# [19] = test system: grass weeds including barnyardrass, large crabgrass, and annual bluegrass; test: Pre-emergence treatment, grass weeds overall; settings: relative to reference compounds
# Description: (§3) A rectangular plastic pot having a surface area of 300 cm^2 was filled with sandy loam soil and mixed bed soil which were mixed at a ratio of 1:1, and then, barnyardrass (Echinochloa crusgalli), large crabgrass (Digitaria sanguinalis), blackgrass (Alopecurus myosuroides), and annual bluegrass (Poa annua), which are grass weeds, were seeded thereto. In a pot that was prepared as described above, seeds of corn, soybean, cotton, wheat, and rice were seeded. The pots were irrigated, and one day after, chemicals were sprayed thereto. The spraying was performed by using a track sprayer (R&D Sprayer, USA) equipped with a Teejet 8002 (Spraying Systems Co., USA) nozzle, and a spraying amount was adjusted at 300 L/ha. A spraying solution was prepared by dissolving test materials or references in acetone and adding the same amount of 0.2%(v/v) tween 20 aqueous solution thereto. Application rates were 500, 250, 125, and 62.5 g/ha. The pots were placed in a greenhouse in which during day, the temperature was maintained at a temperature of 25 to 30° C., and during night, the temperature was maintained at a temperature of 15 to 25° C., and the pots were periodically irrigated. Four weeks after the spraying the test materials or References, effects and phytotoxicity of the respective weeds and crops were evaluated in a scale of 0 to 10 (0: no effects, 10: complete death), and results thereof are shown in Table 4 below.
# [20] = test system: barnyardgrass, large crabgrass, and annual bluegrass; test: Post-emergence treatment, grass weeds overall; settings: 250 g/ha
# Description: as §3
# Pots containing crops and weeds were prepared in the same manner as in Example 7, and then, in the second week in which crops and weeds entered into about 3 leaf stage, the test materials and the references were sprayed thereto in the same manner as described above. The rates were 1,000, 500, 250, and 125 g/ha. Four weeks after the spraying of the test materials or the references, herbicidal efficacy and phytotoxicity to the respective weeds and crops were evaluated in a scale of 0 to 10 (0: no effects, 10: complete death).
compound,measurement,setting,value
"Cc1ccccc1C1=NOC(C)(COCc2c(F)cccc2F)C1 (centres unmarked) [Compound 1, 5-((2,6-difluorobenzyloxy)methyl)-5-methyl-3-o-tolyl-4,5-dihydroisoxazole]","Phytotoxicity, Corn",[1],1
same,"Phytotoxicity, Soybean",[2],0
same,"Phytotoxicity, Cotton",[3],0
same,"Phytotoxicity, Wheat",[4],0
same,"Phytotoxicity, Rice",[5],0
same,"Herbicidal efficacy, Echinochloa crusgalli","[6]; 62.5 g/ha, scale 0 to 10",10
same,"Herbicidal efficacy, Echinochloa crusgalli","[6]; 125 g/ha, scale 0 to 10",10
same,"Herbicidal efficacy, Echinochloa crusgalli","[6]; 250 g/ha, scale 0 to 10",10
same,"Herbicidal efficacy, Echinochloa crusgalli","[6]; 500 g/ha, scale 0 to 10 (0: no effects, 10: complete death)",10
same,"Herbicidal efficacy, Digitaria sanguinalis",[7]; 62.5 g/ha,9
same,"Herbicidal efficacy, Digitaria sanguinalis",[7]; 125 g/ha,10
same,"Herbicidal efficacy, Digitaria sanguinalis",[7]; 250 g/ha,10
same,"Herbicidal efficacy, Digitaria sanguinalis",[7]; 500 g/ha,10
same,"Herbicidal efficacy, Poa annua",[8]; 62.5 g/ha,9
same,"Herbicidal efficacy, Poa annua",[8]; 125 g/ha,10
same,"Herbicidal efficacy, Poa annua",[8]; 250 g/ha,10
same,"Herbicidal efficacy, Poa annua",[8]; 500 g/ha,10
same,"Herbicidal efficacy, Alopecurus myosuroides",[9]; 62.5 g/ha,4
same,"Herbicidal efficacy, Alopecurus myosuroides",[9]; 125 g/ha,6
same,"Herbicidal efficacy, Alopecurus myosuroides",[9]; 250 g/ha,8
same,"Herbicidal efficacy, Alopecurus myosuroides",[9]; 500 g/ha,9
same,"Phytotoxicity, Corn",[10],2
same,"Phytotoxicity, Soybean",[11],2
same,"Phytotoxicity, Cotton",[12],2
same,"Phytotoxicity, Wheat",[13],0
same,"Phytotoxicity, Rice",[14],0
same,"Herbicidal efficacy, Echinochloa crusgalli","[15]; post-emergence, 125 g/ha",7
same,"Herbicidal efficacy, Echinochloa crusgalli","[15]; post-emergence, 250 g/ha",9
same,"Herbicidal efficacy, Echinochloa crusgalli","[15]; post-emergence, 500 g/ha",10
same,"Herbicidal efficacy, Echinochloa crusgalli","[15]; post-emergence, 1,000 g/ha",10
same,"Herbicidal efficacy, Digitaria sanguinalis","[16]; post-emergence, 125 g/ha",6
same,"Herbicidal efficacy, Digitaria sanguinalis","[16]; post-emergence, 250 g/ha",9
same,"Herbicidal efficacy, Digitaria sanguinalis","[16]; post-emergence, 500 g/ha",10
same,"Herbicidal efficacy, Digitaria sanguinalis","[16]; post-emergence, 1,000 g/ha",10
same,"Herbicidal efficacy, Poa annua","[17]; post-emergence, 125 g/ha",5
same,"Herbicidal efficacy, Poa annua","[17]; post-emergence, 250 g/ha",8
same,"Herbicidal efficacy, Poa annua","[17]; post-emergence, 500 g/ha",9
same,"Herbicidal efficacy, Poa annua","[17]; post-emergence, 1,000 g/ha",10
same,"Herbicidal efficacy, Alopecurus myosuroides","[18]; post-emergence, 125 g/ha",2
same,"Herbicidal efficacy, Alopecurus myosuroides","[18]; post-emergence, 250 g/ha",8
same,"Herbicidal efficacy, Alopecurus myosuroides","[18]; post-emergence, 500 g/ha",7
same,"Herbicidal efficacy, Alopecurus myosuroides","[18]; post-emergence, 1,000 g/ha",9
same,efficacy stronger than the References,[19],about 8 times
same,"suppression of barnyardgrass, large crabgrass, and annual bluegrass",[20],greatly suppressed
